Assay results as given in patent US20100298141A1, “SUBSTITUTED PYRIDINE N-OXIDE HERBICIDES” (E. I. DU PONT DE NEMOURS AND COMPANY, priority 2007, published 2010).

Legend:
[1] = system: morningglory; test: Test C pre-/postemergence test; assay type: in vivo, Ipomoea coccinea
Text: (§1) Seeds of plant species selected from blackgrass (Alopecurus myosuroides), downy brome (Bromus tectorum), green foxtail (Setaria viridis), Italian ryegrass (Lolium multiflorum), wheat (Triticum aestivum), wild oat (Avena fatua), catchweed bedstraw (Galium aparine), Russian thistle (Salsola kali), […] (Cynodon dactylon), Surinam grass (Brachiaria decumbens), cocklebur (Xanthium strumarium), corn (Zea mays), crabgrass (Digitaria sanguinalis), woolly cupgrass (Eriochloa villosa), giant foxtail (Setaria faberii), Goosegrass (Eleusin indica), johnsongrass (Sorghum halepense), kochia (Kochia scoparia), lambsquarters (Chenopodium album), morningglory (Ipomoea coccinea), eastern black nightshade (Solanum ptycanthum), yellow nutsedge (Cyperus esculentus), pigweed (Amaranthus retroflexus), common ragweed (Ambrosia elation), soybean (Glycine max), common (oilseed) sunflower (Helianthus annuus), and velvetleaf (Abutilon theophrasti) were planted and treated preemergence with test chemicals formulated in a non-phytotoxic solvent mixture which included a surfactant. At the same time, plants selected from these crop and weed species and also winter barley (Hordeum vulgare), canarygrass (Phalaris minor), and chickweed (Stellaria media) were treated with postemergence applications of some of the test chemicals formulated in the same manner. Plants ranged in height from 2 to 18 cm (1- to 4-leaf stage) for postemergence treatments. […] At time of treatment, test pots were flooded to 3 cm above the soil surface, treated by application of test compounds directly to the paddy water, and then maintained at that water depth for the duration of the test. […] A dash (-) response means no test result.

[2] = system: kochia; test: Test C pre-/postemergence test; assay type: in vivo, Kochia scoparia
Text: as §1

[3] = system: morningglory; test: Test A pre-/postemergence greenhouse test; assay type: in vivo, Ipomoea spp.; settings: for Morningglory plant response rating: 0 to 100 scale; for Plant response rating, Morningglory: 0 to 100 scale where 0 is no effect and 100 is complete control
Outline: (§2)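 Two application timings were run side by side in the greenhouse. Before emergence, compound went onto the soil surface of loam–sand pots as a directed spray; after emergence, plants at 2–10 cm and the one- to two-leaf stage were treated. Visual injury versus controls was rated at approximately day ten.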

[4] = system: barnyardgrass; test: Test A pre-/postemergence greenhouse test; assay type: in vivo, Echinochloa crus-galli; settings: for Barnyardgrass plant response rating: 0 to 100 scale; for Plant response rating, Barnyardgrass: 0 to 100 scale where 0 is no effect and 100 is complete control
Outline: as §2

[5] = system: corn; test: Test C pre-/postemergence test; assay type: in vivo, Zea mays
Text: as §1

[6] = system: cocklebur; test: Test C pre-/postemergence test; assay type: in vivo, Xanthium strumarium
Text: as §1

[7] = system: yellow nutsedge; test: Test C pre-/postemergence test; assay type: in vivo, Cyperus esculentus
Text: as §1

[8] = system: soybean; test: Test C pre-/postemergence test; assay type: in vivo, Glycine max
Text: as §1

[9] = system: woolly cupgrass; test: Test C pre-/postemergence test; assay type: in vivo, Eriochloa villosa
Text: as §1

[10] = system: common (oilseed) sunflower; test: Test C pre-/postemergence test; assay type: in vivo, Helianthus annuus
Text: as §1

[11] = system: umbrella sedge; test: Test C flooded paddy test; assay type: in vivo, Cyperus difformis; settings: Flood
Outline: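 Ratings were visual and made relative to untreated controls after 13 to 15 greenhouse days.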

[12] = system: crabgrass; test: Test C pre-/postemergence test; assay type: in vivo, Digitaria sanguinalis
Text: as §1

[13] = system: pigweed; test: Test C pre-/postemergence test; assay type: in vivo, Amaranthus retroflexus
Text: as §1

[14] = system: Italian ryegrass; test: Test C pre-/postemergence test; assay type: in vivo, Lolium multiflorum; settings: Postemergence; for Plant response rating, Ryegrass, Italian: scale 0 to 100, 0 no effect, 100 complete control
Text: as §1

[15] = system: green foxtail; test: Test C pre-/postemergence test; assay type: in vivo, Setaria viridis; settings: Postemergence; for Plant response rating, Foxtail, Green: scale 0 to 100, 0 no effect, 100 complete control
Text: as §1

[16] = system: wheat; test: Test C pre-/postemergence test; assay type: in vivo, Triticum aestivum; settings: Postemergence; for Plant response rating, Wheat: scale 0 to 100, 0 no effect, 100 complete control
Text: as §1

[17] = system: blackgrass; test: Test C pre-/postemergence test; assay type: in vivo, Alopecurus myosuroides; settings: Postemergence; for Plant response rating, Blackgrass: scale 0 to 100, 0 no effect, 100 complete control
Text: as §1

[18] = 62 g ai/ha, Preemergence, scale 0 to 100
[19] = 125 g ai/ha, preemergence, scale 0 (no effect) to 100 (complete control)
[20] = Preemergence, 31 g ai/ha, scale 0 to 100 (0 no effect, 100 complete control)
[21] = preemergence, 250 g ai/ha, scale 0 (no effect) to 100 (complete control)
[22] = Postemergence, 125 g ai/ha, 0 is no effect, 100 is complete control
[23] = Postemergence, 500 g ai/ha, 0 is no effect, 100 is complete control
[24] = Preemergence, 125 g ai/ha, 0 no effect, 100 complete control
[25] = 250 g ai/ha, scale 0 to 100, 0 no effect, 100 complete control, 13 to 15 days
[26] = Postemergence, 62 g ai/ha, scale 0 to 100, 0 no effect, 100 complete control
[27] = Postemergence, 125 g ai/ha, scale 0 to 100, 0 no effect, 100 complete control
[28] = Postemergence, 250 g ai/ha, scale 0 to 100, 0 no effect, 100 complete control

Cn1nc(C(F)(F)F)c(C[S+]([O-])c2cc(Cl)cc[n+]2[O-])c1Cl (racemic) [Compound 39]
Morningglory plant response rating [1, 18]: 80
Morningglory plant response rating [1, 19]: 100
Plant response rating, Morningglory [1, 20]: 30
Morningglory plant response rating [1, 21]: 100
Kochia plant response rating [2, 18]: 0
Kochia plant response rating [2, 19]: 60
Plant response rating, Kochia [2, 20]: 0
Kochia plant response rating [2, 21]: 100
Morningglory plant response rating [3, 22]: 60
Morningglory plant response rating [3, 23]: 100
Morningglory plant response rating [3, 24]: 80
Plant response rating, Morningglory ([3]; Preemergence, 500 g ai/ha): 100
Barnyardgrass plant response rating [4, 22]: 70
Barnyardgrass plant response rating [4, 23]: 90
Barnyardgrass plant response rating [4, 24]: 90
Plant response rating, Barnyardgrass ([4]; Preemergence, 500 g ai/ha): 100
Corn plant response rating [5, 18]: 5
Corn plant response rating [5, 19]: 70
Plant response rating, Corn [5, 20]: 0
Corn plant response rating [5, 21]: 80
Cocklebur plant response rating [6, 18]: 0
Cocklebur plant response rating [6, 19]: 0
Plant response rating, Cocklebur [6, 20]: 0
Cocklebur plant response rating [6, 21]: 0
Nutsedge, Yellow plant response rating [7, 18]: 50
Nutsedge, Yellow plant response rating [7, 19]: 85
Plant response rating, Nutsedge, Yellow [7, 20]: 50
Nutsedge, Yellow plant response rating [7, 21]: 85
Soybean plant response rating [8, 18]: 0
Soybean plant response rating [8, 19]: 10
Plant response rating, Soybean [8, 20]: 0
Soybean plant response rating [8, 21]: 10
Cupgrass, Woolly plant response rating [9, 18]: 85
Cupgrass, Woolly plant response rating [9, 19]: 85
Plant response rating, Cupgrass, Woolly [9, 20]: 40
Cupgrass, Woolly plant response rating [9, 21]: 85
Sunflower plant response rating [10, 18]: 0
Sunflower plant response rating [10, 19]: 0
Plant response rating, Sunflower [10, 20]: 0
Sunflower plant response rating [10, 21]: 75
Plant response rating, Sedge, Umbrella ([11]; 31 g ai/ha, scale 0 to 100 (0 no effect, 100 complete control)): 70
Plant response rating, Sedge, Umbrella ([11]; 62 g ai/ha, scale 0 to 100, 0 no effect, 100 complete control, 13 to 15 days): 85
Plant response rating, Sedge, Umbrella ([11]; 125 g ai/ha, scale 0 to 100, 0 no effect, 100 complete control, 13 to 15 days): 95
Plant response rating, Sedge, Umbrella [11, 25]: 95
Crabgrass, Large plant response rating [12, 18]: 90
Crabgrass, Large plant response rating [12, 19]: 100
Plant response rating, Crabgrass, Large [12, 20]: 80
Crabgrass, Large plant response rating [12, 21]: 100
Pigweed plant response rating [13, 18]: 100
Pigweed plant response rating [13, 19]: 100
Plant response rating, Pigweed [13, 20]: 100
Pigweed plant response rating [13, 21]: 100

Cn1nc(C(F)(F)F)c(C[S+]([O-])c2cccc[n+]2[O-])c1OCC(F)(F)C(F)(F)F (centres unmarked) [Compound 78]
Plant response rating (0 to 100), Morningglory ([1]; Postemergence, 31 g ai/ha): 0
Plant response rating, Morningglory [1, 26]: 0
Plant response rating, Morningglory [1, 27]: 0
Plant response rating, Morningglory [1, 28]: 0
Plant response rating (0 to 100), Ryegrass, Italian ([14]; 31 g ai/ha): 0
Plant response rating (0 to 100), Ryegrass, Italian ([14]; 62 g ai/ha): 0
Plant response rating, Ryegrass, Italian ([14]; 125 g ai/ha): 30
Plant response rating, Ryegrass, Italian ([14]; 250 g ai/ha): 30
Plant response rating (0 to 100), Kochia ([2]; Postemergence, 31 g ai/ha): 0
Plant response rating, Kochia [2, 26]: 0
Plant response rating, Kochia [2, 27]: 0
Plant response rating, Kochia [2, 28]: 0
Plant response rating, Morningglory ([3]; Postemergence, 125 g ai/ha): 30
Morningglory plant response rating [3, 23]: 60
Morningglory plant response rating [3, 24]: 20
Plant response rating, Morningglory ([3]; Preemergence, 500 g ai/ha): 80
Plant response rating (0 to 100), Foxtail, Green ([15]; 31 g ai/ha): 0
Plant response rating, Foxtail, Green ([15]; 62 g ai/ha): 0
Plant response rating, Foxtail, Green ([15]; 125 g ai/ha): 45
Plant response rating, Foxtail, Green ([15]; 250 g ai/ha): 80
Plant response rating (0 to 100), Wheat ([16]; 31 g ai/ha): 0
Plant response rating (0 to 100), Wheat ([16]; 62 g ai/ha): 0
Plant response rating, Wheat ([16]; 125 g ai/ha): 10
Plant response rating, Wheat ([16]; 250 g ai/ha): 10
Plant response rating, Barnyardgrass ([4]; Postemergence, 125 g ai/ha): 80
Barnyardgrass plant response rating [4, 23]: 80
Barnyardgrass plant response rating [4, 24]: 70
Plant response rating, Barnyardgrass ([4]; Preemergence, 500 g ai/ha): 100
Plant response rating (0 to 100), Corn ([5]; Postemergence, 31 g ai/ha): 0
Plant response rating, Corn [5, 26]: 0
Plant response rating, Corn [5, 27]: 0
Plant response rating, Corn [5, 28]: 20
Plant response rating (0 to 100), Cocklebur ([6]; Postemergence, 31 g ai/ha): 0
Plant response rating, Cocklebur [6, 26]: 0
Plant response rating, Cocklebur [6, 27]: 0
Plant response rating, Cocklebur [6, 28]: 0
Plant response rating (0 to 100), Nutsedge, Yellow ([7]; Postemergence, 31 g ai/ha): 0
Plant response rating, Nutsedge, Yellow [7, 26]: 0
Plant response rating, Nutsedge, Yellow [7, 27]: 0
Plant response rating, Nutsedge, Yellow [7, 28]: 0
Plant response rating (0 to 100), Soybean ([8]; Postemergence, 62 g ai/ha): 20
Plant response rating, Soybean [8, 27]: 60
Plant response rating, Soybean [8, 28]: 65
Plant response rating (0 to 100), Cupgrass, Woolly ([9]; Postemergence, 31 g ai/ha): 0
Plant response rating, Cupgrass, Woolly [9, 26]: 0
Plant response rating, Cupgrass, Woolly [9, 27]: 0
Plant response rating, Cupgrass, Woolly [9, 28]: 20
Plant response rating (0 to 100), Blackgrass ([17]; 31 g ai/ha): 0
Plant response rating, Blackgrass ([17]; 62 g ai/ha): 0
Plant response rating, Blackgrass ([17]; 125 g ai/ha): 50
Plant response rating, Blackgrass ([17]; 250 g ai/ha): 100
Plant response rating, Sedge, Umbrella ([11]; 62 g ai/ha, scale 0 to 100 (0 no effect, 100 complete control)): 75
Plant response rating, Sedge, Umbrella [11, 25]: 100
Plant response rating (0 to 100), Crabgrass, Large ([12]; Postemergence, 31 g ai/ha): 0
Plant response rating, Crabgrass, Large [12, 26]: 0
Plant response rating, Crabgrass, Large [12, 27]: 0
Plant response rating, Crabgrass, Large [12, 28]: 20
Plant response rating (0 to 100), Pigweed ([13]; Postemergence, 31 g ai/ha): 0
Plant response rating (0 to 100), Pigweed ([13]; Postemergence, 62 g ai/ha): 0
Plant response rating, Pigweed [13, 27]: 30
Plant response rating, Pigweed [13, 28]: 35
